Results taken from patent US20250051355A1, “COMPOUNDS, COMPOSITIONS, AND METHODS” (ACONCAGUA BIO, INC., priority 2023, published 2025).
pEC50: −log10 of the molar value.

How the values were obtained:
[1] = target: T1, human calcitonin receptor (CTR) (Homo sapiens, UniProt P30988); test: Calcitonin receptor (CTR) cAMP Assay; format: cell-based; settings: COS7-human CTR Clone #2 cells, cAMP dynamic 2 kit; read-out: Calcitonin Receptor cAMP Stimulation Activity: EC50
T1 construct: expressed in transfected cells; host or cells: COS-7 (COS7-human CTR Clone #2)
T1 sequence (P30988 25-474): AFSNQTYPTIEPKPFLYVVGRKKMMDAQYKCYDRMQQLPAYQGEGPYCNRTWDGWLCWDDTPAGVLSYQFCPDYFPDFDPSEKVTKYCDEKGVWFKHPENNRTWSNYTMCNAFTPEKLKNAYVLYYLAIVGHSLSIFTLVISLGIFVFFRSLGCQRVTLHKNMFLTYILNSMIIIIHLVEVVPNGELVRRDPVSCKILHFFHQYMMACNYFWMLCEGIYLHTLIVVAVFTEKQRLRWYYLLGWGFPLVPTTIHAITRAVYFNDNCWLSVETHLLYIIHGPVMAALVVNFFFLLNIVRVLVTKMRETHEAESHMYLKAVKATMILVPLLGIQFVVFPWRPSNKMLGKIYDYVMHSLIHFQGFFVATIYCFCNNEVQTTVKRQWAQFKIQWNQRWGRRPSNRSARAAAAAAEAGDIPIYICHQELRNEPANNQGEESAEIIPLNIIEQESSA
Summary of the method: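 COS-7 cells stably expressing human CTR (2000 cells/well) treated with 4-fold serially diluted compounds in HBSS/20 mM HEPES/0.5 mM IBMX/0.1% casein, 30 min at 37° C. cAMP quantified by HTRF (cAMP-d2 plus anti-cAMP cryptate, 1 h RT), fluorescence read at 665 and 615 nm.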

[2] = target: human calcitonin receptor (CTR) and RAMP3 (AMY3) (Homo sapiens, UniProt O60896+P30988); test: Amylin Receptor cAMP Assay I; format: cell-based; settings: COS-7/AMY3 cells, cAMP Hi-range Kit, read-out: Amylin Receptor cAMP Stimulation Activity: EC50
human calcitonin receptor (CTR) and RAMP3 (AMY3), sequence (O60896 24-148, one chain of several): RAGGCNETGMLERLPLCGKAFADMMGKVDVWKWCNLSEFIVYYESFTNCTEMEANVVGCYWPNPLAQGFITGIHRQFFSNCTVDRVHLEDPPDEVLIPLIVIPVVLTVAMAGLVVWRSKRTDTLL
Excerpt: Amylin Receptor cAMP Assay I
AMYRs are heterodimers of the class B calcitonin (CT) G-protein-coupled receptor (CTR) and receptor activity-modifying proteins (RAMPs). All three RAMPs can interact with the CTR and form AMY1, AMY2, AMY3 with RAMP1, RAMP2 and RAMP3, respectively. Like other class B1 GPCRs, the CT receptor family is canonically coupled to Gs-mediated cAMP production, and measurement of cAMP accumulation has been the primary assay used to determine peptide selectivity and potency.
To optimize functional activity directed toward Gas coupling, COS-7 cells were stably transfected with human calcitonin receptor (CTR) and RAMP3, simultaneously. 100×concentration of compound working solutions were prepared (Agilent Technologies Bravo) with 4-fold serial dilution in 384-well Echo LDV plate (Labcyte, Cat #LP-0200). 100 nL/well 100× concentration of compound working solutions were moved to 384-well white low volume plate (Greiner, Cat #784075) using Labcyte ECHO550. 1×10^5 cells/mL COS-7/CTR or COS-7/AMY3 (HD Biosciences) cell suspensions prepared with assay buffer [DPBS containing 0.5 mM IBMX (Sigma, Cat #15879) and 0.1% BSA (GENVIEW, Cat #FAO16-100 g)], 10 μL cell suspensions were added to each well of previous generated assay plate which already contains 100 nL compound at 100× concentration using ThermoFisher Multidrop Combi (1000 cells/well). Seal the plate and incubate at 37° C. with 5% CO2 for 30 min.
After incubation, the cAMP assay signal was generated using cAMP Hi-range Kit (Cisbio). 5 μL cAMP-d2 working solution was added to each well, followed by 5 μL Anti-cAMP antibody-cryptate working solution which was added to each well using ThermoFisher Multidrop Combi. The samples were then incubated at room temperature for 1 hour protected from light. the fluorescence was read at 665 and 615 nm with Reader PerkinElmer EnVision.

pEC50 [1]	pEC50 [2]	Compound
7.41	6.75	Cc1nnc(-c2c(CCC3CCCOC3)nc3c(c2-c2ccc(C(=O)NCc4ccc(F)c(F)c4)s2)C(=O)N2CCC[C@@H]32)o1 (stereo partly drawn) [Compound 61, N-(3,4-difluorobenzyl)-5-((9aS)-3-(5-methyl-1,3,4-oxadiazol-2-yl)-5-oxo-2-(2-(tetrahydro-2H-pyran-3-yl)ethyl)-7,8,9,9a-tetrahydro-5H-pyrido[2,3-a]pyrrolizin-4-yl)thiophene-2-carboxamide]
7.51	6.89	Cc1nnc(-c2c(CCC3CCOCC3)nc3c(c2-c2ccc(C(=O)NCc4ccc(F)c(F)c4)s2)C(=O)N2CCC[C@@H]32)o1 [Compound 29]
7.35	6.09	Cc1nnc(-c2c(CCC3CCOCC3)nc3c(c2-c2cc4ccnc(NCc5cccc(F)c5)c4s2)C(=O)N2CCC[C@@H]32)o1 [Compound 70]
8.55	7.11	Cc1nnc(-c2c(CCC3CCOCC3)nc3c(c2-c2cc4ccnc(NCc5ccc(F)c(F)c5)c4s2)C(=O)N2CCC[C@@H]32)o1 [Compound 63]
–	7.39	Cc1ncoc1-c1c(CCc2ccc(F)cc2)nc2c(c1-c1ccc(C(=O)NCc3ccc(F)c(F)c3)s1)C(=O)N1CCC[C@@H]21 [Compound 31, (S)—N-(3,4-difluorobenzyl)-5-(2-(4-fluorophenethyl)-3-(4-methyloxazol-5-yl)-5-oxo-7,8,9,9a-tetrahydro-5H-pyrido[2,3-a]pyrrolizin-4-yl)thiophene-2-carboxamide]
–	6.29	Cc1nnc(-c2c(COC3CCCCC3)nc3c(c2-c2ccc(C(=O)NCc4ccc(F)c(F)c4)s2)C(=O)N2CCC[C@@H]32)o1 [Compound 25]
–	6.49	CO[C@@H]1C[C@@H](NC(=O)c2ccc(-c3c4c(nc(CCc5ccc(F)cc5)c3-c3nnc(C)o3)[C@@H]3CCCN3C4=O)s2)c2ccccc21 (stereo in doubt) [Compound 48]
–	6.90	Cc1nnc(-c2c(CC(F)c3ccc(F)cc3)nc3c(c2-c2ccc(C(=O)N[C@@H]4CCc5ccccc54)s2)C(=O)N2CCC[C@@H]32)o1 (stereo partly drawn) [Compound 52]
–	5.80	Cc1nnc(-c2c(COC3CCOCC3)nc3c(c2-c2ccc(C(=O)NCc4ccc(F)c(F)c4)s2)C(=O)N2CCC[C@@H]32)o1 [Compound 26]
–	7.64	Cc1cnc(-c2c(CCc3ccc(F)cc3)nc3c(c2-c2cc4ccnc(NCc5ccc(F)c(F)c5)c4s2)C(=O)N2CCC[C@@H]32)o1 [Compound 41]
–	5.74	CCc1nc2c(c(-c3ccc(C(=O)N[C@@H]4CCc5cc(F)ccc54)s3)c1-c1nnc(C)o1)C(=O)N1CCC[C@@H]21 [Compound 82, N—[(R)-5-fluoro-1-indanyl]-5-((2S)-11-ethyl-10-(5-methyl-1,3,4-oxadiazol-2-yl)-7-oxo-6,12-diazatricyclo[6.4.0.0^2,6]dodeca-1(8),9,11-trien-9-yl}-2-thenamide]
–	7.56	Cc1nnc(-c2c(CCC3CCOCC3)nc3c(c2-c2cc4ccnc(N[C@@H]5CCc6cc(F)ccc65)c4s2)C(=O)N2CCC[C@@H]32)o1 [Compound 71]

The next lines start with the molecule.

Compound	pEC50 [1]	pEC50 [2]
Cc1nnc(-c2c(COc3ccc(F)cc3)nc3c(c2-c2ccc(C(=O)NCc4ccc(F)c(F)c4)s2)C(=O)N2CCC[C@@H]32)o1 [Compound 7, (S)—N-(3,4-difluorobenzyl)-5-(2-((4-fluorophenoxy)methyl)-3-(5-methyl-1,3,4-oxadiazol-2-yl)-5-oxo-7,8,9,9a-tetrahydro-5H-pyrido[2,3-a]pyrrolizin-4-yl)thiophene-2-carboxamide]	7.12	6.89
Cc1nnc(-c2c(CCc3ccc(F)cc3)nc3c(c2-c2ccc(C(=O)NCc4ccc(F)c(F)c4)s2)C(=O)N[C@@H]3C(C)C)o1 [Compound 2, N-(3,4-difluorophenyl)methyl-5-((R)-5-[2-(p-fluorophenyl)ethyl]-3-isopropyl-6-(5-methyl-1,3,4-oxadiazol-2-yl)-1-oxo-2,4-diaza-7-indanyl}-2-thenamide]	8.15	7.48
Cc1nnc(-c2c(CC(C)c3ccc(F)cc3)nc3c(c2-c2ccc(C(=O)NCc4ccc(F)c(F)c4)s2)C(=O)N2CCC[C@@H]32)o1 (stereo partly drawn) [Compound 9, N-(3,4-difluorobenzyl)-5-((9aS)-2-(2-(4-fluorophenyl)propyl)-3-(5-methyl-1,3,4-oxadiazol-2-yl)-5-oxo-7,8,9,9a-tetrahydro-5H-pyrido[2,3-a]pyrrolizin-4-yl)thiophene-2-carboxamide]	7.82	7.27
Cc1nnc(-c2c(CCc3ccc(F)cc3)nc3c(c2-c2ccc(C(=O)NCc4ccc(F)c(F)c4)s2)S(=O)(=O)N[C@H]3C(C)C)o1 [Compound 18, (S)—N-(3,4-difluorobenzyl)-5-(5-(4-fluorophenethyl)-3-isopropyl-6-(5-methyl-1,3,4-oxadiazol-2-yl)-1,1-dioxido-2,3-dihydroisothiazolo[4,5-b]pyridin-7-yl)thiophene-2-carboxamide]	8.70	7.51
Cc1nnc(-c2c(CCc3ccc(F)cc3)nc3c(c2-c2ccc(C(=O)NCc4ccc(F)c(F)c4)s2)C(=O)N[C@H]3C(C)C)o1 [Compound 1, N-(3,4-difluorophenyl)methyl-5-{(S)-5-[2-(p-fluorophenyl)ethyl]-3-isopropyl-6-(5-methyl-1,3,4-oxadiazol-2-yl)-1-oxo-2,4-diaza-7-indanyl)-2-thenamide]	8.43	7.36
Cc1nnc(-c2c(CCc3ccc(F)cc3)nc3c(c2-c2ccc(C(=O)NCc4ccc(F)c(F)c4)s2)c(=O)n2n3CCC2)o1 [Compound 15, N-(3,4-difluorophenyl)methyl-5-(11-[2-(p-fluorophenyl)ethyl]-10-(5-methyl-1,3,4-oxadiazol-2-yl)-7-oxo-2,6,12-triazatricyclo[6.4.0.0^2,6]dodeca-1(12),8,10-trien-9-yl}-2-thenamide]	7.77	7.05
COc1cccc2c1CC[C@H]2NC(=O)c1ccc(-c2c3c(nc(CCc4ccc(F)cc4)c2-c2nnc(C)o2)[C@@H]2CCCN2C3=O)s1 [Compound 13, N—[(R)-4-methoxy-1-indanyl]-5-((2S)-11-[2-(p-fluorophenyl)ethyl]-10-(5-methyl-1,3,4-oxadiazol-2-yl)-7-oxo-6,12-diazatricyclo[6.4.0.0^2,6]dodeca-1(12),8,10-trien-9-yl}-2-thenamide]	–	7.53
Cc1nnc(-c2c(CCc3ccc(F)cc3)nc3c(c2-c2ccc(C(=O)N[C@@H]4CCc5ccccc54)s2)C(=O)NC[C@H]3C(C)C)o1 [Compound 16, N—((R)-2,3-dihydro-1H-inden-1-yl)-5-((R)-2-(4-fluorophenethyl)-8-isopropyl-3-(5-methyl-1,3,4-oxadiazol-2-yl)-5-oxo-5,6,7,8-tetrahydro-1,6-naphthyridin-4-yl)thiophene-2-carboxamide]	–	5.63
Cc1nnc(-c2c(CCc3ccccc3)nc3c(c2-c2ccc(C(=O)NCc4ccc(F)c(F)c4)s2)C(=O)N2CCC[C@@H]32)o1 [Compound 5, (S)—N-(3,4-difluorobenzyl)-5-(3-(5-methyl-1,3,4-oxadiazol-2-yl)-5-oxo-2-phenethyl-7,8,9,9a-tetrahydro-5H-pyrido[2,3-a]pyrrolizin-4-yl)thiophene-2-carboxamide]	–	7.17
COc1cccc2c1CC[C@H]2NC(=O)c1ccc(-c2c3c(nc(CCc4ccc(F)cc4)c2-c2nnc(C)o2)[C@H](C(C)C)NC3=O)s1 [Compound 3, N—[(R)-4-methoxy-1-indanyl]-5-{(S)-5-[2-(p-fluorophenyl)ethyl]-3-isopropyl-6-(5-methyl-1,3,4-oxadiazol-2-yl)-1-oxo-2,4-diaza-7-indanyl)-2-thenamide]	–	7.15
Cc1cnc(-c2c(CCc3ccc(F)cc3)nc3c(c2-c2ccc(C(=O)NCc4ccc(F)c(F)c4)s2)S(=O)(=O)N2CCC[C@@H]32)o1 [Compound 24]	–	7.10
